Source: US20040180959A1, “Gabapentin analogues for fibromy algia and concomitant disorders” (priority 2002, published 2004)

Tests used:
Type in all cases: in vivo
Wistar rats = experiment: Water-lick (Vogel) Conflict Test in rats; conditions: for Percent of Animals Tested With >20 Shock Episodes / Mean Shock Episodes (1 mA): pretreatment 120 minutes; for Mean Shock Episodes (1 mA): Mean ± SEM
Procedure: In each experiment, naive adult male Wistar rats between 170 to 200 g were randomly divided into groups (N=10-30/group) and deprived of water for 48 hours prior to testing. Food was available on Day 1 and removed 24 hours prior to test Day 2.
Apparatus: The modular operant test cage (Coulbourn Instruments) measures 10.25×12×12 in. The test chambers feature 3 modular bays on each side of the cage for a total of 6 bays. A module optical lickometer is mounted on one side of the chamber 5 cm above the grid floor. The lickometer is used to measure licking-drinking from a water bottle mounted outside the test chamber. A photo beam is piped via glass rods to the tip of the drink tube across a gap at the end of the tube. The animals tongue breaks the beam on each lick. The front and back of the test chamber is made of clear Plexiglas. The front door is covered to reduce distractions from inside the test room. The back of the test chamber is facing a wall, away from the flow of traffic within the testing room and remains uncovered to provide the opportunity for observations during testing. Shocks are delivered using a (Coulbourn) programmable universal shocker calibrated to deliver a 1 mA shock for 1 second through the drink tube.
Procedure: On Day 1, after a 24-hour water deprivation, experimental subjects were placed into the test chambers and allowed to drink unpunished. Drinking was limited to 500 responses or approximately 5 mL of water during a 10 minute session. Immediately following the unpunished drinking session, rats were returned to their home cages, deprived of water for an additional 24 hours and was food deprived. […] After the pretreatment period rats were placed into a test chamber and allowed to drink for 10 minutes. After every 10 licks, rats received a 1-second shock (1 mA) through the drink tube. Thus, a conflict or anxiety-producing situation exists. Rats are motivated to drink; however, they are inhibited by the shock. Anxiety is reflected by the low amounts of drinking. Standard anxiolytic drugs produce effects that allow rats to overcome this behavioral inhibition and drink despite the shock.
All data were analyzed using a Kruskal-Wallis one Way Analysis of Variance on Ranks and Mann-Whitney Rank Sum Tests.
Quantitative Analysis: A quantitative analysis represents the percentage of subjects within a treatment group that receives >20 shock episodes during a test session. This number provides a quantitative comparison regarding the distribution of the responses.
(§1) Compound A was dissolved in water and tested orally as a solution from 0.3 to 100 mg/kg in rats and 3 to 300 mg/kg in mice. Dosages are expressed as the active moiety and were administered in a volume of 1 mL/kg for rats and 10 mL/kg for mice.

mice = experiment: Inverted Screen Test to assess coordination; conditions: immediately following the TST
Procedure: Immediately following the TST, mice were also tested in the Inverted Screen Test to assess coordination. Animals were given a 1-minute trial in which they had to climb to the top of the inverted screen or to simply hang on and not fall off.

CD-1 mice = experiment: Tail Suspension Test (TST) in mice; conditions: 2 hours after treatment
Procedure: The anxiolytic and antidepressant activity of (3S, 4S)-(1-Aminomethyl-3,4-dimethyl-cyclopentyl)-acetic acid (“Compound A”) was assessed using the Tail Suspension Test (TST) in mice, and in the Water-lick (Vogel) Conflict Test (WLC) in rats. The Vogel test is a recognized test procedure for assessing the potential anxiolytic utility. The TST procedure is a behavior despair paradigm used to assess potential antidepressant activity.
The method consisted of suspending mice by a piece of cellophane tape attached to the distal end of the tail for 6 minutes. Animals (CD-1 mice, weighing 22 to 27 g, from Charles River Labs) were tested. The test apparatus was the TST-2™ (ITEM-Labo, Le Kremmlin-Bicetre Cedex, France). Data were analyzed with analysis of variance (ANOVA) and Tukey's Multiple Range Test or Student's t-test.
as §1
The profile of typical […] activity in the TST consists of […]. Compound A and pregabalin were tested concurrently (PO) 2 hours after treatment. Compound A was administered at doses ranging from 3 to 100 mg/kg and pregabalin was tested from 3-300 mg/kg and served as positive control (Table 1). Compound A dose dependently increases immobility with the MED observed at the 3 mg/kg dosage and maximal effects were seen following the 30 mg/kg dose.

[1] = dose 3× the Vogel MED (30 mg/kg)

CC(C)C[C@H](CN)CC(=O)O [Pregabalin, pregabalin, reference compound]
Percent of Animals Tested With >20 Shock Episodes (Wistar rats; 0.3 mg/kg PO): 0%
Mean Shock Episodes (1 mA) (Wistar rats; 0.3 mg/kg PO): 5.1 ± 1.0
Percent of Animals Tested With >20 Shock Episodes (Wistar rats; 1 mg/kg PO): 20%
Mean Shock Episodes (1 mA) (Wistar rats; 1 mg/kg PO): 15.0 ± 6.3
Percent of Animals Tested With >20 Shock Episodes (Wistar rats; 3 mg/kg PO): 20%
Mean Shock Episodes (1 mA) (Wistar rats; 3 mg/kg PO): 10.2 ± 1.6
Percent of Animals Tested With >20 Shock Episodes (Wistar rats; 10 mg/kg PO): 20%
Mean Shock Episodes (1 mA) (Wistar rats; 10 mg/kg PO): 14.7 ± 4.0
Shock episodes (time-course) (Wistar rats; 10 mg/kg, 1 hr post treatment): 65.8 ± 10.8
Shock episodes (time-course) (Wistar rats; 10 mg/kg, 2 hr post treatment): 73.3 ± 13.7
Shock episodes (time-course) (Wistar rats; 10 mg/kg, 4 hr post treatment): 75.1 ± 13.7
Shock episodes (time-course) (Wistar rats; 10 mg/kg, 6 hr post treatment): 54.9 ± 14.7
Shock episodes (time-course) (Wistar rats; 10 mg/kg, 8 hr post treatment): 41.9 ± 13.5
Percent of Animals Tested With >20 Shock Episodes (Wistar rats; 30 mg/kg PO): 50%
Mean Shock Episodes (1 mA) (Wistar rats; 30 mg/kg PO): 51.0 ± 19.1
Shock episodes (time-course) (Wistar rats; 30 mg/kg, 30 min. post treatment): 27.7 ± 8.2
Shock episodes (time-course) (Wistar rats; 30 mg/kg, 1 hr post treatment): 66.5 ± 10
Shock episodes (time-course) (Wistar rats; 30 mg/kg, 2 hr post treatment): 59.8 ± 9.8
Shock episodes (time-course) (Wistar rats; 30 mg/kg, 4 hr post treatment): 100.3 ± 12
Shock episodes (time-course) (Wistar rats; 30 mg/kg, 6 hr post treatment): 39.5 ± 9
Shock episodes (time-course) (Wistar rats; 30 mg/kg, 8 hr post treatment): 30.4 ± 9.1
Percent of Animals Tested With >20 Shock Episodes (Wistar rats; 100 mg/kg PO): 50%
Mean Shock Episodes (1 mA) (Wistar rats; 100 mg/kg PO): 40.7 ± 11.1
Time of maximal effects after treatment (Wistar rats; MED dose 10 mg/kg): 2 to 4 h
Activity maintained through (Wistar rats; [1]): 8 h
Onset of activity after treatment (Wistar rats; [1]): 1 h
Time of peak activity post treatment (Wistar rats; [1]): 6 h
MED for anti-conflict activity (Wistar rats; oral, 2 hour pretreatment, rats): 10 mg/kg
Screen fall-off, animals of animals tested (mice; 100 mg/kg PO): 1 of 10
Screen fall-off, animals of animals tested (mice; 300 mg/kg PO): 1 of 10
Immobility, % Percent of control (CD-1 mice; 3 mg/kg PO): 102.9 ± 9.5%
Power of Movement, % Percent of control (CD-1 mice; 3 mg/kg PO): 99.1 ± 22.9%
Immobility, % Percent of control (CD-1 mice; 10 mg/kg PO): 134.5 ± 9.9 %
Power of Movement, % Percent of control (CD-1 mice; 10 mg/kg PO): 89.6 ± 18.7%
Immobility, % Percent of control (CD-1 mice; 30 mg/kg PO): 136.9 ± 7.1 %
Power of Movement, % Percent of control (CD-1 mice; 30 mg/kg PO): 96.4 ± 22.7%
Immobility, % Percent of control (CD-1 mice; 100 mg/kg PO): 152.7 ± 6.6 %
Power of Movement, % Percent of control (CD-1 mice; 100 mg/kg PO): 73.4 ± 12.5%
Immobility, % Percent of control (CD-1 mice; 300 mg/kg PO): 160.5 ± 7.4 %
Power of Movement, % Percent of control (CD-1 mice; 300 mg/kg PO): 76.6 ± 12.2%
